We go through 26 molecules from US10961252B2, “Quinazoline and indole compounds to treat medical disorders” (Achillion Pharmaceuticals, Inc., priority 2016, dated 2021).

Structures are written as SMILES. pIC50: −log10 of the molar value. Structures can show the parent of a compound that is named as a salt.

The first test relates to Normal Human Serum (NHS). Description: Hemolysis assay: lysis of rabbit erythrocytes (RE) by Normal Human Serum (NHS). Conditions: rabbit erythrocyte, 0.5 h, Table 1, hemolysis of rabbit erythrocytes with NHS, GVB0 plus 10 mM Mg-EGTA, 37° C., read-out: IC50. It counts as cell-based. The protocol: The hemolysis assay was previously described by G. Ruiz-Gomez, et al., J. Med. Chem. (2009) 52: 6042-6052. Prior to the assay, the optimum concentration of Normal Human Serum (NHS) needed to achieve 100% lysis of rabbit erythrocytes (RE) is determined by titration. In the assay, NHS (Complement Technology) is diluted in GVB^0 Buffer (0.1% gelatin, 5 mM Veronal, 145 mM NaCl, 0.025% NaN3, pH 7.3, Complement Technology) plus 10 mM Mg-EGTA and incubated with test compound at various concentrations for 15 minutes at 37° C. RE (Complement Technology) freshly suspended in GVB^0 plus 10 mM Mg-EGTA are added to a final concentration of 1×10^8 cells/mL and reactions are incubated for 30 minutes at 37° C. Positive control reactions (100% lysis) consist of GVB^0 plus 10 mM Mg-EGTA with NHS and RE but without test compound; negative control reactions (0% lysis) consist of GVB^0 plus 10 mM Mg-EGTA with RE only. Samples are centrifuged at 2000 g for 3 minutes and supernatants collected. Absorbance at 405 nm (A405) is recorded using a microplate spectrophotometer. IC50 values are calculated by nonlinear regression from the percentage of hemolysis as a function of test compound concentration.
What is called pIC50 is the negative decadic logarithm of the IC50, by convention in mol/L. With `COc1cc2c(N)nc(N3CCN(C(=O)CC4NCCS4)CC3)nc2c(F)c1OC` (centres unmarked) [Compound 1, 1-(4-(4-Amino-8-fluoro-6,7-dimethoxyquinazolin-2-yl)piperazin-1-yl)-2-(thiazolidin-2-yl)ethan-1-one Hydrochloride], the pIC50 was less than 5.00.
In the case of `COc1cc2c(N)nc(N3CCN(C(=O)C[C@@H]4C[C@@H]5CCC[C@@H]5N4)CC3)nc2c(F)c1OC` [Compound 2, 1-(4-(4-Amino-8-fluoro-6,7-dimethoxyquinazolin-2-yl)piperazin-1-yl)-2-((2S,3aS,6aS)-octahydrocyclopenta[b]pyrrol-2-yl)ethan-1-one Hydrochloride], the pIC50 is greater than 6.00.
Still for that read-out and setting: the result for `COc1cc2c(N)nc(N3CCN(C(=O)C[C@@H]4C[C@@H]5CCCC[C@@H]5N4)CC3)nc2c(F)c1OC` [Compound 3, 1-(4-(4-Amino-8-fluoro-6,7-dimethoxyquinazolin-2-yl)piperazin-1-yl)-2-((2S,3aS,7aS)-octahydro-1H-indol-2-yl)ethan-1-one Hydrochloride] reads greater than 6.00; that for `CCN[C@H](CC(=O)N1CC=C(c2nc(N)c3cc(OC)c(OC)c(F)c3n2)CC1)c1ccc(F)cc1` [Compound 4, (R)-1-(4-(4-Amino-8-fluoro-6,7-dimethoxyquinazolin-2-yl)-3,6-dihydropyridin-1(2H)-yl)-3-(ethylamino)-3-(4-fluorophenyl)propan-1-one], greater than 6.00; that for `CCN[C@H](CC(=O)N1CCC(c2nc(N)c3cc(OC)c(OC)c(F)c3n2)CC1)c1ccc(F)cc1` [Compound 5, (R)-1-(4-(4-Amino-8-fluoro-6,7-dimethoxyquinazolin-2-yl)piperidin-1-yl)-3-(ethylamino)-3-(4-fluorophenyl)propan-1-one], 5.00 to 6.00.
Consider `CCN[C@H](CC(=O)N1CCC(c2nc(N)c3cc(OC)c(OC)c(F)c3n2)=C(C(=O)OC)C1)c1ccc(F)cc1` [Compound 6, Methyl (R)-4-(4-amino-8-fluoro-6,7-dimethoxyquinazolin-2-yl)-1-(3-(ethylamino)-3-(4-fluorophenyl)propanoyl)-1,2,5,6-tetrahydropyridine-3-carboxylate], for which the pIC50 is 5.00 to 6.00.
For the molecule `CCN[C@H](CC(=O)N1CCC(c2nc(N)c3cc(OC)c(OC)c(F)c3n2)C(C(=O)OC)C1)c1ccc(F)cc1` (stereo partly drawn) [Compound 7, Methyl 4-(4-amino-8-fluoro-6,7-dimethoxyquinazolin-2-yl)-1-((R)-3-(ethylamino)-3-(4-fluorophenyl)propanoyl)piperidine-3-carboxylate], the pIC50 is less than 5.00.
In the case of `CCN[C@H](CC(=O)N1CCC(c2nc(N)c3cc(OC)c(OC)c(F)c3n2)=C(C(=O)O)C1)c1ccc(F)cc1` [Compound 8, (R)-4-(4-Amino-8-fluoro-6,7-dimethoxyquinazolin-2-yl)-1-(3-(ethylamino)-3-(4-fluorophenyl)propanoyl)-1,2,5,6-tetrahydropyridine-3-carboxylic Acid], the pIC50 was less than 5.00.
For the molecule `CCN[C@H](CC(=O)N1CCC(c2nc(N)c3cc(OC)c(OC)c(F)c3n2)C(C(=O)O)C1)c1ccc(F)cc1` (stereo partly drawn) [Compound 9, 4-(4-Amino-8-fluoro-6,7-dimethoxyquinazolin-2-yl)-1-((R)-3-(ethylamino)-3-(4-fluorophenyl)propanoyl)piperidine-3-carboxylic acid], the pIC50 is 5.00 to 6.00.
Turning to `CCN[C@H](CC(=O)N1C(C)C=C(c2nc(N)c3cc(OC)c(OC)c(F)c3n2)CC1C)c1ccc(F)cc1` (stereo partly drawn) [Compound 10, (3R)-1-(4-(4-Amino-8-fluoro-6,7-dimethoxyquinazolin-2-yl)-2,6-dimethyl-3,6-dihydropyridin-1(2H)-yl)-3-(ethylamino)-3-(4-fluorophenyl)propan-1-one], the pIC50 is greater than 6.00.
As to `CCN[C@H](CC(=O)N1CCN(c2nc(N)c3cc4c(c(F)c3n2)OC(F)(F)O4)CC1)c1ccc(F)cc1` [Compound 12, (R)-1-(4-(8-Amino-2,2,4-trifluoro-[1,3]dioxolo[4,5-g]quinazolin-6-yl)piperazin-1-yl)-3-(ethylamino)-3-(4-fluorophenyl)propan-1-one], the pIC50 was 5.00 to 6.00.
As for `CCN[C@H](CC(=O)N1CC2CCC(C1)N2c1nc(N)c2cc(OC)c(OC)c(F)c2n1)c1ccc(F)cc1` [Compound 13, (3R)-1-(8-(4-Amino-8-fluoro-6,7-dimethoxyquinazolin-2-yl)-3,8-diazabicyclo[3.2.1]octan-3-yl)-3-(ethylamino)-3-(4-fluorophenyl)propan-1-one], the pIC50 was greater than 6.00.
`COc1cc2c(N)nc(N3CC4CCC(C3)N4C(=O)C=Cc3ccc(F)cc3)nc2c(F)c1OC` [Compound 14, 1-(3-(4-Amino-8-fluoro-6,7-dimethoxyquinazolin-2-yl)-3,8-diazabicyclo[3.2.1]octan-8-yl)-3-(4-fluorophenyl)prop-2-en-1-one]: the pIC50 is less than 5.00.
For `CCN[C@H](CC(=O)N1CC2CCC1CN2c1nc(N)c2cc(OC)c(OC)c(F)c2n1)c1ccc(F)cc1` (stereo partly drawn) [Compound 15, (3R)-1-(5-(4-Amino-8-fluoro-6,7-dimethoxyquinazolin-2-yl)-2,5-diazabicyclo[2.2.2]octan-2-yl)-3-(ethylamino)-3-(4-fluorophenyl)propan-1-one], the pIC50 was less than 5.00.

Still in this test, the particulars now being: rabbit erythrocyte, 0.5 h, Table 2, hemolysis of rabbit erythrocytes with NHS, GVB0 plus 10 mM Mg-EGTA, 37° C., read-out: IC50 (Stars).
Regarding `CCN[C@H](CC(=O)N1CC2CCC(C1)N2c1nc(N)c2cc(OC)c(OC)c(F)c2n1)c1ccc(C#N)cc1` [Compound 16, 4-((1R)-3-(8-(4-Amino-8-fluoro-6,7-dimethoxyquinazolin-2-yl)-3,8-diazabicyclo[3.2.1]octan-3-yl)-1-(ethylamino)-3-oxopropyl)benzonitrile], the pIC50 was greater than 6.00.
Still for that read-out and setting: the result for `CCN[C@H](CC(=O)N1CC=C(c2nc(N)c3cc(OC)c(OC)c(F)c3n2)CC1)c1ccc(C#N)cc1` [Compound 17, (R)-4-(3-(4-(4-Amino-8-fluoro-6,7-dimethoxyquinazolin-2-yl)-3,6-dihydropyridin-1(2H)-yl)-1-(ethylamino)-3-oxopropyl)benzonitrile] reads greater than 6.00; that for `COc1cc2c(N)nc(C3=CCN(C(=O)C[C@@H]4C[C@@H]5CCCC[C@@H]5N4)CC3)nc2c(F)c1OC` [Compound 18, 1-(4-(4-Amino-8-fluoro-6,7-dimethoxyquinazolin-2-yl)-3,6-dihydropyridin-1(2H)-yl)-2-((2S,3aS,7aS)-octahydro-1H-indol-2-yl)ethan-1-one TFA salt], greater than 6.00.

The same test, now with this note: rabbit erythrocyte, 0.5 h, Table 3, hemolysis of rabbit erythrocytes with NHS, GVB0 plus 10 mM Mg-EGTA, 37° C., read-out: IC50 (Stars).
Take `COc1cc(C)c2[nH]ccc2c1CN1CCC(F)(F)CC1c1ccc(C(=O)O)cc1` (centres unmarked) [Compound 19, 4-(4,4-difluoro-1-((5-methoxy-7-methyl-1H-indol-4-yl)methyl)piperidin-2-yl)benzoic Acid]: the pIC50 was less than 5.00.
`COc1cc(C)c2[nH]ccc2c1CN1CCCC[C@H]1C1CCC(C(=O)O)CC1` (stereo partly drawn) [Compound 20, (1R,4S)-4-((S)-1-((5-Methoxy-7-methyl-1H-indol-4-yl)methyl)piperidin-2-yl) Cyclohexanecarboxylic Acid]: the pIC50 is less than 5.00.
Take `COc1cc(C)c2[nH]ncc2c1CN1CC[C@@H](C)C[C@H]1c1ccc(C(=O)O)cc1` [Compound 21, 4-((2S, 4R)-1-((5-Methoxy-7-methyl-1H-indazol-4-yl) Methyl)-4-methylpiperidin-2-yl) Benzoic Acid]: the pIC50 is less than 5.00.
Turning to `COc1cc(C)c2[nH]ccc2c1CN1CC[C@@H](C)C[C@H]1c1ccc(S(C)(=N)=O)cc1` (stereo partly drawn) [Compound 22, 5-Methoxy-7-methyl-4-(((2 S,4R)-4-methyl-2-(4-(S-methylsulfonimidoyl)phenyl)piperidin-1-yl)methyl)-1H-indole], the pIC50 is greater than 6.00.
With `COc1cc(C)c2[nH]ccc2c1CN1CC[C@H](C)C[C@@H]1c1ccc(S(C)(=N)=O)cc1` (stereo partly drawn) [Compound 23, 5-Methoxy-7-methyl-4-(((2R,4S)-4-methyl-2-(4-(S-methylsulfonimidoyl)phenyl)piperidin-1-yl)methyl)-1H-indole], the pIC50 was less than 5.00.
As to `COc1cc(C)c2[nH]c(C)cc2c1CN1CC[C@@H](C)C[C@H]1c1ccc(C(=O)O)cc1` [Compound 24, 4-((2S, 4R)-1-((5-Methoxy-2,7-dimethyl-1H-indol-4-yl) Methyl)-4-methylpiperidin-2-yl) Benzoic Acid], the pIC50 was less than 5.00.
The same measure, in the same setting: the result for `COc1cc(C)c2[nH]ccc2c1CN1CCC(C)CC1c1ccc(S(C)(=N)=O)cc1` (centres unmarked) [Compound 25, 5-Methoxy-7-methyl-4-((4-methyl-2-(4-(S-methylsulfonimidoyl)phenyl)piperidin-1-yl)methyl)-1H-indole] reads greater than 6.00.
With `COc1cc(C)c2[nH]ccc2c1CN1CCC(C)CC1c1ccc(P(=O)(O)O)cc1` (centres unmarked) [Compound 26, 4-(1-((5-Methoxy-7-methyl-1H-indol-4-yl)methyl)-4-methylpiperidin-2-yl)phenylphosphonic Acid], the negative-log IC50 (pIC50) is greater than 6.00.
Consider `COc1cc(C)c2[nH]ccc2c1CN1CCC(C)CC1c1ccc(C(=O)NO)cc1` (centres unmarked) [Compound 27, N-Hydroxy-4-(1-((5-methoxy-7-methyl-1H-indol-4-yl)methyl)-4-methylpiperidin-2-yl)benzamide], for which the pIC50 was greater than 6.00.
